# Read-outs that look alike come from different tables or passages of the source.
# Legend:
# [1] = human, cited from earlier work
# HCT-116 cells = conditions: 24 hours; for IL15Ra mean fluorescent intensity (MFI): HCT-116 cells stably expressing OT-001111
# Method: HCT-116 cells stably expressing the OT-001111 (OT-IL15-009) cassette were incubated with 0 to 250 μM TMP ligand (or DMSO) for 24 hours. Membrane bound IL15-IL15Ra levels were assessed using flow cytometry detection of IL15Ra.
# [2] = test system: GFP positive (IL12 negative) T cells; experiment: In vivo T cell phenotype: GFP positive cells co-transferred with CD19 CAR-IL12 cells, FACS markers, plasma IL12; set-up: species or system NSG mice
# Method: IL12-transduced T cells have a Th1-skewed phenotype in vitro, i.e. produce IFN gamma). To assess phenotypic effects of IL12 in vivo, GFP positive (IL12 negative) cells were generated and co-transferred with CD19 CAR-IL12 transduced cells or CD19 alone or IL12 alone cells. Nalm 6 tumor bearing NSG mice were injected with 8 million GFP positive cells, in addition to CD19 CAR-IL12 cells or their corresponding monocistronic constructs. The groups utilized in this study included, 1e^6 empty vector expressing T cells plus 8e^6 GFP positive cells, 1e^6 OT-001407 plus 8e^6 GFP positive cells, 0.1 e^6 OT-001356 plus 8e^6 GFP positive cells, 1e^6 OT-001356 plus 8e^6 GFP positive cells, 0.1e^6 OT-001357 plus 8e^6 GFP positive cells, 1e^6 OT-001357 plus 8e^6 GFP positive cells, and 1e^6 OT-001442 plus 8e^6 GFP positive cells.
# Animals were bled on day 3, day 5, day 7 and euthanized at day 12. Blood, spleen, and bone marrow were collected for analysis of T cell number and CD8 frequency. Phenotypic T cell markers such as Granzyme, Tbet, pSTAT4, CD25, and ICOS were analyzed in the GFP positive cells using FACS. […] By day 12, post transfer, the levels of Granzyme B, Tbet, pSTAT4, CD25 and ICOS levels increased in the blood of the mice injected with the CD19 CAR-IL12 tandem constructs. ANOVA test for significance was p<0.0001 for all markers. […]
"EC 50 of IL12 in plasma ([2]; mouse, in vivo)",Compound,TMP maximum peak levels ([1]; 150 mg/m2 IV every 8 hours),TMP steady state levels ([1]; 80-160 mg BID PO),TMP concentration resulting in IL15Ra MFI levels above DMSO controls (HCT-116 cells; HCT-116 stably expressing OT-001111),IL15Ra mean fluorescent intensity (MFI) (HCT-116 cells; TMP 0.00064 μM),IL15Ra mean fluorescent intensity (MFI) (HCT-116 cells; TMP 0.0032 μM),IL15Ra mean fluorescent intensity (MFI) (HCT-116 cells; TMP 0.016 μM),IL15Ra mean fluorescent intensity (MFI) (HCT-116 cells; TMP 0.08 μM),IL15Ra mean fluorescent intensity (MFI) (HCT-116 cells; TMP 0.4 μM),IL15Ra mean fluorescent intensity (MFI) (HCT-116 cells; TMP 2 μM),IL15Ra mean fluorescent intensity (MFI) (HCT-116 cells; TMP 10 μM),IL15Ra mean fluorescent intensity (MFI) (HCT-116 cells; TMP 50 μM),IL15Ra mean fluorescent intensity (MFI) (HCT-116 cells; TMP 250 μM),"level of IL12 sufficient to induce phenotypic changes ([2]; plasma, markers and IFN gamma)"
,"COc1cc(Cc2cnc(N)nc2N)cc(OC)c1OC [TMP, Trimethoprim]",17 to 34 µM,1 to 6 µM,0.0032 µM,304,469,666,769,1001,1104,1204,1344,1576,
~0.1 ng/mL,"IL12: heterodimeric protein of two subunits (p35, p40); cytokine",,,,,,,,,,,,,200 pg/mL
